Source: patent publication US8030335B2, “Use of liver X receptor agonists” (Laboratoires Fournier S.A., priority 2005, dated 2011)

Experiments:
Format in all cases: in vivo, rat
[1] = test system: isolated pancreatic islets; assay: Insulin content of pancreatic islets isolated from treated ZDF rats; conditions: 10 mg/kg oral for 3 weeks, vehicle 4.78±0.86, fa+ 27.74±6.85, mean±SEM
Experimental: Male ZDF fa/fa and ZDF fa+ rats were obtained from Genetic Models (Indianapolis, Ind.), at the age of 6 weeks and used in the experiments at 12 weeks of age, after 3 weeks of oral treatment with vehicle or GW3965 (10 mg/kg). Compounds were given once daily (at 17 h) via oral gavage. At the time of their use, the ZDF fa/fa rats weighed 310-350 g, whereas the age-matched ZDF fa+ rats weighed 245-285 g. ZDF fa+ and ZDF fa/fa animals had free access to diabetogenic chow (Purina 5008). Animals were housed 5 per cage in a temperature and humidity-controlled room with a 12/12-h light-dark cycle. Blood samples were taken 16 h after compound administration via the tail vein and measured on a Konelab 300 (Labsystem) clinical chemistry analyzer. Rat pancreatic islets were prepared by collagenase digestion and density gradient purification. The enzyme collagenase type XI (Sigma Chemical, St. Louis, Mo.) was used for digestion of the pancreas. After an overnight fast, animals were deeply anesthetized and killed. Then, the pancreatic duct was cannulated, and 20 ml of the digestion solution at 37° C. […] Insulin content was measured in the same islets after an overnight alcohol-acid extraction (Ethanol 75%+HCl 0.15 N). Insulin concentrations in the different media were determined by rat insulin ELISA test (Insulin Rat Elite plus, MERCODIA).

pancreatic islets = assay: Number of harvested pancreatic islets in treated ZDF rats; conditions: 10 mg/kg oral for 3 weeks, vehicle 51±13, fa+ 120±28, mean±SEM
Experimental: Male ZDF fa/fa and ZDF fa+ rats were obtained from Genetic Models (Indianapolis, Ind.), at the age of 6 weeks and used in the experiments at 12 weeks of age, after 3 weeks of oral treatment with vehicle or GW3965 (10 mg/kg). Compounds were given once daily (at 17 h) via oral gavage. At the time of their use, the ZDF fa/fa rats weighed 310-350 g, whereas the age-matched ZDF fa+ rats weighed 245-285 g. ZDF fa+ and ZDF fa/fa animals had free access to diabetogenic chow (Purina 5008). Animals were housed 5 per cage in a temperature and humidity-controlled room with a 12/12-h light-dark cycle. Blood samples were taken 16 h after compound administration via the tail vein and measured on a Konelab 300 (Labsystem) clinical chemistry analyzer. Rat pancreatic islets were prepared by collagenase digestion and density gradient purification. The enzyme collagenase type XI (Sigma Chemical, St. Louis, Mo.) was used for digestion of the pancreas. After an overnight fast, animals were deeply anesthetized and killed. Then, the pancreatic duct was cannulated, and 20 ml of the digestion solution at 37° C. (collagenase 30 mg/ml dissolved in 20 ml Hanks' balanced salt solution [HBSS]) (Sigma Chemical, St. Louis, Mo.) was slowly injected to distend the tissue. […]

Glut2 mRNA = assay: Real-time quantitative RT-PCR of Glut2 in isolated islets of treated ZDF rats; conditions: normalized to 18S rRNA, vehicle ZDF 0.27, fa+ 0.40±0.22
Experimental: Pancreatic and duodenal homeobox gene 1, Pdx1 (Genbank: NM_022852) and facilitated glucose transporter, member 2, Glut2 (Genbank: NM_012879) gene expression were measured by real time quantitative RT-PCR. Total RNAs from fresh isolated rat pancreatic islets were prepared using Rneasy 96 Kit according to the manufacturer's protocol (Qiagen, France), treated with Dnase I to remove contaminating DNA (Stratagene, France), and quantified using the iScript cDNA Synthesis and iQ SYBR Green Supermix kits (Biorad, france). Real-time quantitative RT-PCR was performed using the iCycler Detection System instrument and software (Bio-Rad). As the predicted size of the amplified cDNAs and the Tm values for the primers were similar, uniform amplification conditions were applied (ie. annealing at 60° C.). Specificity of amplified products was monitored by performing melting curves at the end of each amplification. Expression levels were quantified (total RNA units) by generating a six-point serial standard curve. RNA samples were normalized for comparison by determining 18S rRNA levels. In this example, the mRNA expression of PDX1 and Glut2 was determined. As previously described, PDX1 and Glut2 are markers of the regeneration of beta cells. […] PDX1 and Glut2 mRNA expression was increased in islets isolated from GW3965-compared to vehicle-treated ZDF rats. […]

Q: What does the source list for `O=C(O)Cc1cccc(OCCCN(Cc2cccc(C(F)(F)F)c2Cl)CC(c2ccccc2)c2ccccc2)c1` [GW3965]?
A: insulin content of islets [1]: 13.05±2.49 ng/islet; number of harvested pancreatic islets (pancreatic islets): 80±16 islets/rat; Glut2 mRNA expression (Glut2 mRNA): 0.55±0.23
